Results taken from patent US7854753B2, “Photokinetic delivery of biologically active substances using pulsed incoherent light” (Photokinetix, Inc., priority 2002, dated 2010).

Experiments:
[1] = volume of water for 1 g; cited from earlier work
[2] = Franz skin diffusion cell permeation (percutaneous absorption) under ambient, natural or pulsed incoherent LED light; details: for Permeation 350 / Permeation 405: 75% duty cycle; for Permeation Dark: ambient light absent; for Permeation Ctrl: ambient cool fluorescent light only, 260-750 nm, 120 cps; for Permeation Ctrl-TiO2: ambient fluorescent light, sample with 2% (w/w) rutile TiO2; for Ctrl: ambient light only; for Ctrl-TiO2 / Effect of 2% (w/w) TiO2 on permeation: ambient light; for Ctrl-TiO2: 2% TiO2; for Ctrl-TiO2/1.7 / Ctrl-TiO2/9.7 / Ctrl-TiO2/24: Table 8, 405 nm series; for Ctrl-TiO2/1.7: 2% TiO2, 1.7 cps; for Ctrl-TiO2/9.7: 2% TiO2, 9.7 cps; for Ctrl-TiO2/24: 2% TiO2, 24 cps; for Permeation 1.7 cps / 405/1.7: 1.7 cps; for Permeation 9.7 cps / 405/9.7: 9.7 cps; for 405/24: 24 cps; for Effect of 2% (w/w) TiO2 on permeation: FIG. 4

CC(=O)[C@H]1CC[C@H]2[C@@H]3CCC4=CC(=O)CC[C@]4(C)[C@H]3CC[C@]12C [Compound 18, Progesterone]
Water Solubility (1 g) [1]: Insoluble
Permeation 350 ([2]; 350 nm LED, pulse rate 24 cps): 149.91 μg/0.64 cm^2/25 hrs
Permeation 1.7 cps ([2]; 350 nm): 2.58 μg/0.64 cm^2/25 hrs
Permeation 9.7 cps ([2]; 350 nm): 2.80 μg/0.64 cm^2/25 hrs
Permeation 405 ([2]; 405 nm LED, pulse rate 24 cps): 6.19 μg/0.64 cm^2/25 hrs
Permeation Dark ([2]; Dark control): 0.00 μg/0.64 cm^2/25 hrs
Permeation Ctrl [2]: 0.00 μg/0.64 cm^2/25 hrs
Permeation Ctrl-TiO2 [2]: 0.00 μg/0.64 cm^2/25 hrs

NC(=O)c1cccnc1 [Compound 10, Nicotinamide]
Water Solubility (1 g) [1]: 1 mL
Permeation Dark ([2]; Dark control): 543.70 μg/0.64 cm^2/25 hrs
Ctrl ([2]; Table 8 (405 nm series)): 42.72
Ctrl-TiO2 ([2]; Table 8 (405 nm series)): 851.83
Ctrl-TiO2/1.7 [2]: 668.31
Ctrl-TiO2/9.7 [2]: 1387.33
Ctrl-TiO2/24 [2]: 0.00
405/1.7 ([2]; Table 8, 405 nm): 26.22
405/9.7 ([2]; Table 8, 405 nm): 32.69
405/24 ([2]; Table 8, 405 nm): 0.00
Permeation Ctrl [2]: 42.72 μg/0.64 cm^2/25 hrs
Permeation Ctrl-TiO2 [2]: 851.80 μg/0.64 cm^2/25 hrs
Effect of 2% (w/w) TiO2 on permeation [2]: significant effect

Cc1ncc(CO)c(CO)c1O [Compound 5, Pyridoxine]
Water Solubility (1 g) [1]: 4.5 mL
Permeation Dark ([2]; Dark control): 261.30 μg/0.64 cm^2/25 hrs
Ctrl ([2]; Table 8 (405 nm series)): 32.90
Ctrl-TiO2 ([2]; Table 8 (405 nm series)): 806.25
Ctrl-TiO2/1.7 [2]: 537.60
Ctrl-TiO2/9.7 [2]: 862.75
Ctrl-TiO2/24 [2]: 0.00
405/1.7 ([2]; Table 8, 405 nm): 179.38
405/9.7 ([2]; Table 8, 405 nm): 0.00
405/24 ([2]; Table 8, 405 nm): 187.81
Permeation Ctrl [2]: 32.90 μg/0.64 cm^2/25 hrs
Permeation Ctrl-TiO2 [2]: 806.20 μg/0.64 cm^2/25 hrs
Effect of 2% (w/w) TiO2 on permeation [2]: significant effect

C[C@@H]1[C@H](O)[C@@H](C)/C=C/C=C/C=C/C=C/C=C/C=C/C=C/[C@H](O[C@@H]2O[C@H](C)[C@@H](O)[C@H](N)[C@@H]2O)C[C@@H]2O[C@](O)(C[C@@H](O)C[C@@H](O)[C@H](O)CC[C@@H](O)C[C@@H](O)CC(=O)O[C@H]1C)C[C@H](O)[C@H]2C(=O)O [Compound 21, Amphotericin B]
% Permeation (percent increase or decrease vs dark baseline, equation 1) ([2]; 350 + TiO2, 8 cps vs Dark-TiO2): 49.51%
% Permeation (percent increase or decrease vs dark baseline, equation 1) ([2]; 350 + TiO2, 24 cps vs Dark-TiO2): 71.32%
% Permeation (percent increase or decrease vs dark baseline, equation 1) ([2]; 350 + TiO2, 80 cps vs Dark-TiO2): 18.24%
Permeation ([2]; 350 + TiO2, pulse rate 8 cps): 1.54 μg/cm^2/24 hrs
Permeation ([2]; 350 + TiO2, pulse rate 24 cps): 2.33 μg/cm^2/24 hrs
Permeation ([2]; 350 + TiO2, pulse rate 80 cps): 2.01 μg/cm^2/24 hrs
Permeation ([2]; 350 nm LED, pulse rate 8 cps): 1.19 μg/cm^2/24 hrs
Permeation ([2]; 350 nm LED, pulse rate 24 cps): 3.35 μg/cm^2/24 hrs
Permeation ([2]; 350 nm LED, pulse rate 80 cps): 2.81 μg/cm^2/24 hrs
% Permeation (percent increase or decrease vs dark baseline, equation 1) ([2]; 350 nm, 8 cps vs Dark): 60.81%
% Permeation (percent increase or decrease vs dark baseline, equation 1) ([2]; 350 nm, 24 cps vs Dark): 66.67%
% Permeation (percent increase or decrease vs dark baseline, equation 1) ([2]; 350 nm, 80 cps vs Dark): −11.36%
% Permeation (percent increase or decrease vs dark baseline, equation 1) ([2]; 390 + TiO2, 8 cps vs Dark-TiO2): 91.26%
% Permeation (percent increase or decrease vs dark baseline, equation 1) ([2]; 390 + TiO2, 24 cps vs Dark-TiO2): 48.53%
% Permeation (percent increase or decrease vs dark baseline, equation 1) ([2]; 390 + TiO2, 80 cps vs Dark-TiO2): 241.18%
Permeation ([2]; 390 + TiO2, pulse rate 8 cps): 1.97 μg/cm^2/24 hrs
Permeation ([2]; 390 + TiO2, pulse rate 24 cps): 2.02 μg/cm^2/24 hrs
Permeation ([2]; 390 + TiO2, pulse rate 80 cps): 5.80 μg/cm^2/24 hrs
Permeation ([2]; 390 nm LED, pulse rate 8 cps): 1.11 μg/cm^2/24 hrs
Permeation ([2]; 390 nm LED, pulse rate 24 cps): 1.88 μg/cm^2/24 hrs
Permeation ([2]; 390 nm LED, pulse rate 80 cps): 3.94 μg/cm^2/24 hrs
% Permeation (percent increase or decrease vs dark baseline, equation 1) ([2]; 390 nm, 8 cps vs Dark): 50.00%
% Permeation (percent increase or decrease vs dark baseline, equation 1) ([2]; 390 nm, 24 cps vs Dark): −6.47%
% Permeation (percent increase or decrease vs dark baseline, equation 1) ([2]; 390 nm, 80 cps vs Dark): 24.29%
% Permeation (percent increase or decrease vs dark baseline, equation 1) ([2]; 405 + TiO2, 8 cps vs Dark-TiO2): 33.01%
% Permeation (percent increase or decrease vs dark baseline, equation 1) ([2]; 405 + TiO2, 24 cps vs Dark-TiO2): 817.65%
% Permeation (percent increase or decrease vs dark baseline, equation 1) ([2]; 405 + TiO2, 80 cps vs Dark-TiO2): 180.59%
Permeation ([2]; 405 + TiO2, pulse rate 8 cps): 1.37 μg/cm^2/24 hrs
Permeation ([2]; 405 + TiO2, pulse rate 24 cps): 12.48 μg/cm^2/24 hrs
Permeation ([2]; 405 + TiO2, pulse rate 80 cps): 4.77 μg/cm^2/24 hrs
Permeation ([2]; 405 nm LED, pulse rate 8 cps): 1.26 μg/cm^2/24 hrs
Permeation ([2]; 405 nm LED, pulse rate 24 cps): 1.83 μg/cm^2/24 hrs
Permeation ([2]; 405 nm LED, pulse rate 80 cps): 7.23 μg/cm^2/24 hrs
% Permeation (percent increase or decrease vs dark baseline, equation 1) ([2]; 405 nm, 8 cps vs Dark): 70.27%
% Permeation (percent increase or decrease vs dark baseline, equation 1) ([2]; 405 nm, 24 cps vs Dark): −8.96%
% Permeation (percent increase or decrease vs dark baseline, equation 1) ([2]; 405 nm, 80 cps vs Dark): 129.65%
% Permeation (percent increase or decrease vs dark baseline, equation 1) ([2]; 450 + TiO2, 8 cps vs Dark-TiO2): 110.68%
% Permeation (percent increase or decrease vs dark baseline, equation 1) ([2]; 450 + TiO2, 24 cps vs Dark-TiO2): 8.82%
% Permeation (percent increase or decrease vs dark baseline, equation 1) ([2]; 450 + TiO2, 80 cps vs Dark-TiO2): 198.82%
Permeation ([2]; 450 + TiO2, pulse rate 8 cps): 2.17 μg/cm^2/24 hrs
Permeation ([2]; 450 + TiO2, pulse rate 24 cps): 1.48 μg/cm^2/24 hrs
Permeation ([2]; 450 + TiO2, pulse rate 80 cps): 5.08 μg/cm^2/24 hrs
Permeation ([2]; 450 nm LED, pulse rate 8 cps): 0.80 μg/cm^2/24 hrs
Permeation ([2]; 450 nm LED, pulse rate 24 cps): 1.19 μg/cm^2/24 hrs
Permeation ([2]; 450 nm LED, pulse rate 80 cps): 9.26 μg/cm^2/24 hrs
% Permeation (percent increase or decrease vs dark baseline, equation 1) ([2]; 450 nm, 8 cps vs Dark): 8.11%
% Permeation (percent increase or decrease vs dark baseline, equation 1) ([2]; 450 nm, 24 cps vs Dark): −40.80%
% Permeation (percent increase or decrease vs dark baseline, equation 1) ([2]; 450 nm, 80 cps vs Dark): 192.11%
Permeation ([2]; Dark control, 8 cps series): 0.74 μg/cm^2/24 hrs
Permeation ([2]; Dark control, 24 cps series): 2.01 μg/cm^2/24 hrs
Permeation ([2]; Dark control, 80 cps series): 3.17 μg/cm^2/24 hrs
Permeation ([2]; Dark-TiO2 control (2% TiO2), 8 cps series): 1.03 μg/cm^2/24 hrs
Permeation ([2]; Dark-TiO2 control (2% TiO2), 24 cps series): 1.36 μg/cm^2/24 hrs
Permeation ([2]; Dark-TiO2 control (2% TiO2), 80 cps series): 1.70 μg/cm^2/24 hrs
Permeation ([2]; Day (natural daylight, not pulsed), control of the 8 cps series): 0.84 μg/cm^2/24 hrs
Permeation ([2]; Day (natural daylight, not pulsed), control of the 24 cps series): 1.59 μg/cm^2/24 hrs
Permeation ([2]; Day (natural daylight, not pulsed), control of the 80 cps series): 2.52 μg/cm^2/24 hrs
% Permeation (percent increase or decrease vs dark baseline, equation 1) ([2]; Day vs Dark, 8 cps series): 13.51%
% Permeation (percent increase or decrease vs dark baseline, equation 1) ([2]; Day vs Dark, 24 cps series): −20.90%
% Permeation (percent increase or decrease vs dark baseline, equation 1) ([2]; Day vs Dark, 80 cps series): −20.50%
Permeation ([2]; Day-TiO2 (natural daylight, 2% TiO2, not pulsed), control of the 8 cps series): 0.70 μg/cm^2/24 hrs
Permeation ([2]; Day-TiO2 (natural daylight, 2% TiO2, not pulsed), control of the 24 cps series): 0.89 μg/cm^2/24 hrs
Permeation ([2]; Day-TiO2 (natural daylight, 2% TiO2, not pulsed), control of the 80 cps series): 4.09 μg/cm^2/24 hrs
% Permeation (percent increase or decrease vs dark baseline, equation 1) ([2]; Day-TiO2 vs Dark-TiO2, 8 cps series): −32.04%
% Permeation (percent increase or decrease vs dark baseline, equation 1) ([2]; Day-TiO2 vs Dark-TiO2, 24 cps series): −34.56%
% Permeation (percent increase or decrease vs dark baseline, equation 1) ([2]; Day-TiO2 vs Dark-TiO2, 80 cps series): 140.59%

CC[C@H](C)[C@H](NC(=O)[C@H](Cc1ccc(O)cc1)NC(=O)[C@@H](NC(=O)[C@H](CCCNC(=N)N)NC(=O)[C@@H](N)CC(=O)O)C(C)C)C(=O)N[C@@H](Cc1cnc[nH]1)C(=O)N1CCC[C@H]1C(=O)N[C@@H](Cc1ccccc1)C(=O)O [Compound 15]
Permeation Dark ([2]; Dark control): 42.80 μg/0.64 cm^2/25 hrs
405/1.7 ([2]; Table 10, 405 nm): 19.99
405/9.7 ([2]; Table 10, 405 nm): 73.19
405/24 ([2]; Table 10, 405 nm): 3.87
Ctrl ([2]; Table 10 peptides): 0.00
Permeation Ctrl [2]: 0.00 μg/0.64 cm^2/25 hrs
Permeation Ctrl-TiO2 [2]: 0.00 μg/0.64 cm^2/25 hrs

Cn1cnc2c1c(=O)[nH]c(=O)n2C [Compound 7, Theobromine]
Water Solubility (1 g) [1]: 2000 mL

Cn1c(=O)c2[nH]cnc2n(C)c1=O [Compound 8, Theophylline]
Water Solubility (1 g) [1]: 120 mL

O=C(O)c1cccnc1 [Compound 6, Nicotinic acid]
Water Solubility (1 g) [1]: 60 mL
Permeation Dark ([2]; Dark control): 976.30 μg/0.64 cm^2/25 hrs
Ctrl ([2]; Table 8 (405 nm series)): 0.00
Ctrl-TiO2 ([2]; Table 8 (405 nm series)): 1371.00
Permeation Ctrl [2]: 0.00 μg/0.64 cm^2/25 hrs
Permeation Ctrl-TiO2 [2]: 1371.00 μg/0.64 cm^2/25 hrs
Effect of 2% (w/w) TiO2 on permeation [2]: significant effect

C[C@]12CCC(=O)C=C1CC[C@@H]1[C@@H]2CC[C@@]2(C)[C@H]1CC[C@]2(C)O [Compound 17, Methyl Testosterone]
Water Solubility (1 g) [1]: Insoluble
Permeation 350 ([2]; 350 nm LED, pulse rate 24 cps): 153.25 μg/0.64 cm^2/25 hrs
Permeation 1.7 cps ([2]; 350 nm): 12.84 μg/0.64 cm^2/25 hrs
Permeation 9.7 cps ([2]; 350 nm): 29.57 μg/0.64 cm^2/25 hrs
Permeation 405 ([2]; 405 nm LED, pulse rate 24 cps): 25.37 μg/0.64 cm^2/25 hrs
Permeation Dark ([2]; Dark control): 0.00 μg/0.64 cm^2/25 hrs
Permeation Ctrl [2]: 0.00 μg/0.64 cm^2/25 hrs
Permeation Ctrl-TiO2 [2]: 0.00 μg/0.64 cm^2/25 hrs

Cn1c(=O)c2c(ncn2CC(=O)O)n(C)c1=O [Compound 1, Theophylline-7 acetic acid]
Permeation Dark ([2]; Dark control): 0.00 μg/0.64 cm^2/25 hrs
Permeation Ctrl [2]: 0.00 μg/0.64 cm^2/25 hrs
Permeation Ctrl-TiO2 [2]: 0.00 μg/0.64 cm^2/25 hrs
